From patent US8591886B2, “Combination therapies employing GITR binding molecules” (GITR, Inc., priority 2007, dated 2013)

System: CT26 cells
Assay: CT26 colon carcinoma flank tumor model, Gemzar and 2F8
Format: in vivo, Mice
Conditions: Kaplan-Meier; Gemzar 80 mg/kg Day 15; 2F8 alone 0.4 mg I.P. Days 15, 16 and 17; FIG. 2
Protocol: One group of control mice was untreated. The group of mice receiving Gemzar was treated with 80 mg/kg Gemzar on Day 15.
GraphPad Prism 4 software was used to plot Kaplan-Meir survival curves and to confirm the median survival times for the groups.

Nc1ccn([C@@H]2O[C@H](CO)[C@@H](O)C2(F)F)c(=O)n1 [Gemzar, gemcitabine]
median survival: 31 days
